The values below come from patent US3944557A, “Pyridinium salts” (Commonwealth Scientific & Industrial Research Organization, priority 1973, dated 1976).

Molecules are shown by their SMILES.

In one test the test system is Monolinia fructicola. In words: Inhibition of spore germination of M. fructicola. Format: cell-based. Particulars: Monilinia fructicola; Table 7; read-out: 50% inhibition of spore germination (Monolinia fructicola spore germination). The text has this:
50% inhibition of spore germination of M. fructicola

A further test deals with Fusarium oxysporum. Briefly: Infection of tomato seedlings by F. oxysporum (soil application). Particulars: read-out: Protection of tomato seedlings from infection by F. oxysporum. The format is in vivo. The text has this: Infection of tomato seedlings by F. oxysporum
100% protection 8 kg/ha (soil application) ++
50% protection at 8 kg/ha (soil application) +

A further test deals with Phytophthora cinnamomi. In words: Protection of lupin seedlings from infection by P. cinnamomi. Particulars: Table 7. Format: in vivo. The text has this: Protection of lupin seedlings from infection by […]
For a further test, the system named is Rhizoctonia solani. In words: Infection of cotton seedlings by Rh. solani (soil application). Format: in vivo. Particulars: Table 7, 16 kg/ha, read-out: Protection of cotton seedlings from infection by Rh. solani. The text has this:
Infection of cotton seedlings by Rh. solani
100% protection at 16 kg/ha (soil application) ++
50% protection at 16 kg/ha (soil application) +

With `CCCCCCCNc1cc(N)[n+](CCCCCCC)c(Cl)c1C#N` [Compound 13], the IC50 in the test with Monolinia fructicola was not above 5 µg/mL. The pest or weed control at 8000 g/ha in the test on Fusarium oxysporum was 50%. In the test with Phytophthora cinnamomi, the minimal effective concentration is not above 2 µg/mL.

As to `CCCCCCCCNc1cc(N)[n+](CCCCCCCC)c(Cl)c1C#N.[Cl-]` [Compound 14, 2-amino-6-chloro-5-cyano-1-n-octyl-4-n-octylamino pyridinium chloride], the IC50 in the test with Monolinia fructicola was not above 5 µg/mL. For the same compound, the pest or weed control at 16000 g/ha with Rhizoctonia solani was 100%. Further, the pest or weed control at 8000 g/ha in the test on Fusarium oxysporum came to 50%. The compound also yielded a minimal effective concentration with Phytophthora cinnamomi not above 2 µg/mL.

For the compound `N#Cc1c(NCc2ccccc2)cc(N)[n+](Cc2ccccc2)c1Cl` [Compound 17], the IC50 in the test on Monolinia fructicola was in the range of 5 to 50 µg/mL. Besides, in the test on Fusarium oxysporum, the pest or weed control at 8000 g/ha was 50%. The compound further displayed a minimal effective concentration in the test with Phytophthora cinnamomi of 2 to 8 µg/mL.

In the case of `CNc1cc(N)[n+](C)c(NCc2ccco2)c1C#N` [Compound 23], in the test with Fusarium oxysporum, the pest or weed control at 8000 g/ha was 100%. In addition, the minimal effective concentration in the test on Phytophthora cinnamomi is more than 8 µg/mL.

On to `CCCCCCCCCCCCNc1c(C#N)c(NC)cc(N)[n+]1C` [Compound 27], for which, in the test with Rhizoctonia solani, the pest or weed control at 16000 g/ha turned out to be 100%. Also, the minimal effective concentration in the test on Phytophthora cinnamomi was 30 µg/mL.

On to `CCCCNc1cc(N)[n+](CCCC)c(NCc2ccco2)c1C#N` [Compound 36], for which the IC50 with Monolinia fructicola is 5 to 50 µg/mL. For the same compound, the pest or weed control at 16000 g/ha in the test on Rhizoctonia solani was determined as 50%. Further, the minimal effective concentration in the test with Phytophthora cinnamomi fell in the range of 2 to 8 µg/mL.

`CCCCCCNc1cc(N)[n+](CCCCCC)c(NCCCC)c1C#N.[Cl-]` [Compound 42, 2-amino-6-n-butylamino-5-cyano-1-n-hexyl-4-n-hexylamino pyridinium chloride]: in the test with Monolinia fructicola, the IC50 was not above 5 µg/mL. This compound also displayed a minimal effective concentration in the test with Phytophthora cinnamomi not above 2 µg/mL.

Turning to `CCCCCCCCNc1c(C#N)c(NCCCCCC)cc(N)[n+]1CCCCCC` [Compound 44], the IC50 in the test with Monolinia fructicola was not above 5 µg/mL. In addition, the pest or weed control at 8000 g/ha with Fusarium oxysporum stood at 50%. This compound also came in with a minimal effective concentration with Phytophthora cinnamomi not above 2 µg/mL.

In the case of `CCCCCCCCNc1cc(N)[n+](CCCCCCCC)c(N)c1C#N` [Compound 46], the IC50 in the test on Monolinia fructicola is not above 5 µg/mL. For the same compound, the pest or weed control at 16000 g/ha in the test with Rhizoctonia solani was 50%. Also, the minimal effective concentration in the test on Phytophthora cinnamomi was not above 2 µg/mL.

For the compound `CC(C)Nc1cc(N)[n+](C(C)C)c(S(=O)(=O)[O-])c1C#N` [Compound 59], the pest or weed control at 16000 g/ha in the test with Rhizoctonia solani came to 100%. In the test on Phytophthora cinnamomi, this compound displayed a minimal effective concentration of more than 8 µg/mL.

With `CCCCCCNc1c(Br)c(N)[n+](CCCCCC)c(Cl)c1C#N` [Compound 67], in the test with Monolinia fructicola, the IC50 is not above 5 µg/mL. Further, in the test with Fusarium oxysporum, the pest or weed control at 8000 g/ha was 50%. The same compound registered a minimal effective concentration in the test on Phytophthora cinnamomi of 2 to 8 µg/mL.

Regarding `CCCCCCNc1cc(N)[n+](CCCCCC)c(Sc2ccccc2)c1C#N.[Cl-]` [Compound 78, 2-amino-5-cyano-1-n-hexyl-4-n-hexylamino-6-phenylmercapto pyridinium chloride], the IC50 with Monolinia fructicola is not above 5 µg/mL. Moreover, the pest or weed control at 16000 g/ha in the test with Rhizoctonia solani worked out at 50%. The minimal effective concentration with Phytophthora cinnamomi was not above 2 µg/mL.
